What was measured:
Assay in all cases: relative viability (nuclei count vs DMSO), 5 days (fraction); higher = more cells survive
[1] = compound: CCCS(=O)(=O)Nc1ccc(F)c(C(=O)c2c[nH]c3ncc(-c4ccc(Cl)cc4)cc23)c1F [Vemurafenib] + COc1cccc2cc(-c3nc([C@H]4CC[C@H](C(=O)O)CC4)n4ncnc(N)c34)[nH]c12 [OSI-027] (partner 0.5 µM)
Outline: (§1)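 Lung cancer cell lines in 1536-well plates got either a single drug or a fixed anchor-drug dose together with five library-drug doses (not always all listed) in √10 steps, by pin tool, on the day after seeding. Nuclei were counted after 5 days, and relative viability is the treated-to-vehicle ratio of nuclei counts. Values are medians of duplicate plates.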

[2] = compound: Cc1nc(NC(=O)N2CCC[C@H]2C(N)=O)sc1-c1ccnc(C(C)(C)C(F)(F)F)c1 [Alpelisib] + CC(=O)c1c(C)c2cnc(Nc3ccc(N4CCNCC4)cn3)nc2n(C2CCCC2)c1=O [Palbociclib] (partner 0.5 µM)
Outline: as §1

[3] = compound: Cc1nc(NC(=O)N2CCC[C@H]2C(N)=O)sc1-c1ccnc(C(C)(C)C(F)(F)F)c1 [Alpelisib] + CC(C)C[C@H](NC(=O)[C@H](Cc1ccccc1)NC(=O)c1cnccn1)B(O)O [Bortezomib] (partner 0.002 µM)
Outline: as §1

[4] = compound: Cc1nc(NC(=O)N2CCC[C@H]2C(N)=O)sc1-c1ccnc(C(C)(C)C(F)(F)F)c1 [Alpelisib] + Cc1cc(Nc2cc(N3CCN(C)CC3)nc(Sc3ccc(NC(=O)C4CC4)cc3)n2)n[nH]1 [Tozasertib] (partner 0.1 µM)
Outline: as §1

Row | Cell Line | relative viability ([1]; first compound 0.03162 µM) | relative viability ([1]; first compound 0.3162 µM) | relative viability ([1]; first compound 1 µM) | relative viability ([2]; first compound 0.04 µM) | relative viability ([2]; first compound 0.1265 µM) | relative viability ([2]; first compound 0.4 µM) | relative viability ([2]; first compound 1.265 µM) | relative viability ([2]; first compound 4 µM) | relative viability ([3]; first compound 0.04 µM) | relative viability ([3]; first compound 0.1265 µM) | relative viability ([3]; first compound 0.4 µM) | relative viability ([3]; first compound 1.265 µM) | relative viability ([3]; first compound 4 µM) | relative viability ([4]; first compound 0.04 µM) | relative viability ([4]; first compound 0.1265 µM) | relative viability ([4]; first compound 0.4 µM) | relative viability ([4]; first compound 1.265 µM) | relative viability ([4]; first compound 4 µM) | relative viability ([1]; first compound 0.1 µM)
1 | PC-14 | 0.822 | 0.741 | 0.767 | 0.556 | 0.499 | 0.602 | 0.464 | 0.497 | 0.801 | 0.882 | 1.16 | 0.773 | 0.747 | 0.588 | 0.612 | 0.655 | 0.44 | 0.543 | 
2 | H3255 | 0.582 | 0.583 | 0.565 | 0.333 | 0.321 | 0.333 | 0.296 | 0.264 | 0.852 | 0.648 | 1.2 | 0.48 | 0.444 | 0.702 | 0.683 | 0.767 | 0.431 | 0.438 | 
3 | NCI-H650 | 0.459 |  | 0.421 | 0.315 | 0.345 | 0.316 | 0.263 | 0.265 | 0.728 | 0.563 | 0.881 | 0.573 | 0.58 | 0.705 | 0.758 | 0.798 | 0.54 | 0.573 | 0.473
4 | HCC-366 | 0.886 | 0.674 | 0.418 | 0.421 | 0.356 | 0.36 | 0.247 | 0.162 | 0.974 | 1.05 | 1.02 | 0.82 | 0.419 | 0.151 | 0.117 | 0.13 | 0.0701 | 0.0516 | 0.843
5 | EKVX | 0.634 | 0.791 | 0.688 | 0.349 | 0.325 | 0.386 | 0.313 | 0.242 | 1.09 | 1.05 | 1.05 | 0.953 | 1.02 | 0.346 | 0.308 | 0.499 | 0.333 | 0.198 | 
6 | NCI-H1734 | 0.583 | 0.49 | 0.507 | 0.307 | 0.282 | 0.373 | 0.263 | 0.227 | 0.896 | 0.814 | 0.943 | 0.623 | 0.518 | 0.289 |  | 0.299 | 0.224 | 0.205 | 0.568
7 | CAL-12T | 0.542 | 0.801 | 0.503 | 0.413 | 0.38 | 0.647 | 0.415 | 0.355 | 1.08 |  | 0.952 |  | 0.718 | 0.295 | 0.308 | 0.246 | 0.212 | 0.317 | 0.461
8 | NCI-H2347 | 0.436 | 0.577 | 0.367 | 0.417 | 0.45 | 0.407 | 0.474 | 0.423 | 0.784 | 0.849 | 1.12 | 1.08 | 0.876 | 0.649 | 0.582 | 0.682 | 0.39 | 0.361 | 0.37
9 | NCI-H3122 | 0.932 | 1.04 | 0.899 | 0.163 | 0.162 | 0.188 | 0.185 | 0.144 | 0.992 | 1.08 | 0.984 | 1.12 | 0.999 | 0.334 | 0.387 | 0.35 | 0.255 | 0.263 | 0.893
10 | NCI-H23 | 0.566 | 0.547 | 0.349 | 0.59 | 0.434 | 0.461 | 0.305 | 0.313 | 0.941 | 0.941 | 0.773 | 0.559 | 0.766 | 0.39 | 0.428 | 0.459 | 0.302 | 0.255 | 0.543
11 | ABC-1 | 0.417 | 0.539 | 0.474 | 0.653 | 0.611 | 0.732 | 0.385 | 0.454 | 0.312 | 0.295 | 0.268 | 0.363 | 0.266 | 0.175 | 0.157 | 0.155 | 0.195 | 0.188 | 0.435
12 | NCI-H2228 | 0.548 | 0.634 | 0.474 | 0.748 | 0.519 | 0.771 | 0.332 | 0.355 | 0.933 | 0.807 | 0.922 | 0.696 | 0.537 | 0.224 | 0.173 | 0.231 | 0.204 | 0.139 | 0.634
13 | HCC-15 | 0.648 |  | 0.52 | 0.749 | 0.702 | 0.773 | 0.617 | 0.551 | 1.03 | 0.948 | 1.04 | 0.898 | 0.858 | 0.352 | 0.373 | 0.487 | 0.336 | 0.263 | 0.73
14 | COR-L23 | 0.662 | 0.579 | 0.646 | 0.271 | 0.241 | 0.253 | 0.215 | 0.212 | 0.945 | 0.976 | 1.13 | 0.798 | 0.802 | 0.205 | 0.208 | 0.218 | 0.19 | 0.13 | 0.777
15 | NCI-H2009 | 0.606 | 0.389 | 0.325 | 0.235 | 0.23 | 0.245 | 0.215 | 0.164 | 1.03 | 0.982 | 1.24 | 0.89 | 0.859 | 0.729 | 0.708 | 0.768 | 0.696 | 0.752 | 0.483
16 | NCI-H1755 | 0.696 | 0.586 | 0.632 | 0.417 | 0.41 | 0.458 | 0.371 | 0.382 | 0.911 | 0.972 | 1.06 | 0.886 | 0.838 | 0.615 | 0.508 | 0.629 | 0.438 | 0.434 | 0.687

From the supplement of paper PMC10307832
